These results are taken from patent publication US10231954B2, “Neurodegenerative therapies” (LYTIX BIOPHARMA AS, priority 2014, dated 2019).

Type in all cases: biochemical
The target in one experiment is T1, IKKb (Homo sapiens, UniProt O14920).
T1 sequence (O14920 1-756): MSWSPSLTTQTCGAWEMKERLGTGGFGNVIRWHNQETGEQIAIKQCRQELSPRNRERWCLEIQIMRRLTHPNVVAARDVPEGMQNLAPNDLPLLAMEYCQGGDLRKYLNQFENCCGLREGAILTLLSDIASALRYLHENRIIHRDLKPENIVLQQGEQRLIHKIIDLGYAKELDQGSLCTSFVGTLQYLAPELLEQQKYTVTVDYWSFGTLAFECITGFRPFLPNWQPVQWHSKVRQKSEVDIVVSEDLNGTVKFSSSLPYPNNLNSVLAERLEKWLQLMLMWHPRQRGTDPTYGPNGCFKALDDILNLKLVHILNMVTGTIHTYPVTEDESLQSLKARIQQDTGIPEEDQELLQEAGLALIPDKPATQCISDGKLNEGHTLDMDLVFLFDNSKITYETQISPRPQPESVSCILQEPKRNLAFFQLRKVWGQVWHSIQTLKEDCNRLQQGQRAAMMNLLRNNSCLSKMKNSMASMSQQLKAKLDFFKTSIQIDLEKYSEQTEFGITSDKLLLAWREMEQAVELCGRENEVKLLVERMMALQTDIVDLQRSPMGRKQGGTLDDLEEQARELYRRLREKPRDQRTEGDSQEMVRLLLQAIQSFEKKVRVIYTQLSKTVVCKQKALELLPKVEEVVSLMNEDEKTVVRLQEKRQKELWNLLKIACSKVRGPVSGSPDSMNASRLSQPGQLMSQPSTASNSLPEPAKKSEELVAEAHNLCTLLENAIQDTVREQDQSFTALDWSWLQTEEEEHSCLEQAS
In words: Kinase profiling IKKb. To be noted: 100 micromolar inhibitor concentration, 100 is no change; for remaining activity at 100 µM: read-out: residual kinase activity, IKKb. The source says:
(§1) Any value less that 25 is considered to be highly significant inhibition.

Another experiment addresses T2, Aurora A (Homo sapiens, UniProt O14965).
T2 sequence (O14965 1-403): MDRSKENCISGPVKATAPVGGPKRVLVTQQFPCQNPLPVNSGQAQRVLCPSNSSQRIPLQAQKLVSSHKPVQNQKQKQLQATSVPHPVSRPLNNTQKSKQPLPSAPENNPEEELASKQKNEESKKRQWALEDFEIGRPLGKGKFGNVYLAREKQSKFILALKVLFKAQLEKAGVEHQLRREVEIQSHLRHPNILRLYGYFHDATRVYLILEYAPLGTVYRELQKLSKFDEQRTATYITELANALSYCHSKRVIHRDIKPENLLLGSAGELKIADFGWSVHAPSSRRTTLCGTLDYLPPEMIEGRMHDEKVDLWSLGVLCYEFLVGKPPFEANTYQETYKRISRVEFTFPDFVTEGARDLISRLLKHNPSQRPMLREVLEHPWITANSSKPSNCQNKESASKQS
In words: Kinase profiling Aurora A. To be noted: 100 micromolar inhibitor concentration, 100 is no change; for remaining activity at 100 µM: read-out: residual kinase activity, Aurora A.
Description: as §1

The target of a further experiment is T3, TLK1 (Homo sapiens, UniProt Q9UKI8).
T3 sequence (Q9UKI8 1-766): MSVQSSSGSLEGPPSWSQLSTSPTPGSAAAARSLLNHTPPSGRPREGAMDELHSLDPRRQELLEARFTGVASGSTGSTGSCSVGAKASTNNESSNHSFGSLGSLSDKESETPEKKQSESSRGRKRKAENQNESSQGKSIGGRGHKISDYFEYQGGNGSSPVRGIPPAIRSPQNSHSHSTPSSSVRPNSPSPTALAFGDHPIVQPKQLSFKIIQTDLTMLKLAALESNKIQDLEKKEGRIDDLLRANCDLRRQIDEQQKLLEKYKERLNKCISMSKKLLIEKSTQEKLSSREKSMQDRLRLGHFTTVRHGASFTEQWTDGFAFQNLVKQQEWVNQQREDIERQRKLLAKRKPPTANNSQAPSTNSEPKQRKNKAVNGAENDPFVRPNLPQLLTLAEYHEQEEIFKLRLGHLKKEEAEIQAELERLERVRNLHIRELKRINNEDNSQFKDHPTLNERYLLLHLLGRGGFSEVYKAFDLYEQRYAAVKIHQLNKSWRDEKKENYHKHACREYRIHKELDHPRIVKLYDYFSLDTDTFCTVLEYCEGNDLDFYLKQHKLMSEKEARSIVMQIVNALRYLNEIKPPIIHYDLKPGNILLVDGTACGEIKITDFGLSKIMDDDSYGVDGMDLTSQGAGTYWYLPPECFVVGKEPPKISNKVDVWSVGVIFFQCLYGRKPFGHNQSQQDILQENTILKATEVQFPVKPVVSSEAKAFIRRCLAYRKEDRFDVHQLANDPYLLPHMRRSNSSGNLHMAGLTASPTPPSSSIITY
In words: Kinase profiling TLK1. To be noted: 100 micromolar inhibitor concentration, 100 is no change; for remaining activity at 100 µM: read-out: residual kinase activity, TLK1.
Description: as §1

Another experiment has as its target T4, NUAK1 (Homo sapiens, UniProt O60285).
T4 sequence (O60285 1-661): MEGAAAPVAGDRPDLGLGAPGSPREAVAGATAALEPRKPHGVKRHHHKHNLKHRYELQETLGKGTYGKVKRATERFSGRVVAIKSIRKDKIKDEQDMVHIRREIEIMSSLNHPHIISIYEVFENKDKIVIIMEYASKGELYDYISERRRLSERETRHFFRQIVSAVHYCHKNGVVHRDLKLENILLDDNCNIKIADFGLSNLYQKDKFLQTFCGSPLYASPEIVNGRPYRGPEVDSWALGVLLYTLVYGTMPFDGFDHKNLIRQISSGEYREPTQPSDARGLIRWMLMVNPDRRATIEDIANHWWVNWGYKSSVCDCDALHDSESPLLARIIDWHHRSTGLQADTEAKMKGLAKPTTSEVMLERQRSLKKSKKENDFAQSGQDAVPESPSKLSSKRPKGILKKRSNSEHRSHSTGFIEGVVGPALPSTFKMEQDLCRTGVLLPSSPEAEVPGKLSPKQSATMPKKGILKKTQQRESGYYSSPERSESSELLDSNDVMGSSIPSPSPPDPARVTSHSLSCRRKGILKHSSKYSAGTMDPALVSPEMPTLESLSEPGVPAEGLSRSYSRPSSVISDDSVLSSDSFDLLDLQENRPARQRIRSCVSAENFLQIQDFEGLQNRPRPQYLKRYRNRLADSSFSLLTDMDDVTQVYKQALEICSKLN
Kind of experiment: Kinase profiling NUAK1. Conditions: 100 micromolar inhibitor concentration, 100 is no change; for remaining activity at 100 µM: read-out: residual kinase activity, NUAK1.
Description: as §1

The target of another experiment is MNK2 (Homo sapiens, UniProt Q9HBH9). In words: Kinase profiling MNK2. To be noted: 100 micromolar inhibitor concentration, 100 is no change; for remaining activity at 100 µM: read-out: residual kinase activity, MNK2.
Chain of MNK2 (Q9HBH9 whole entry, species assumed): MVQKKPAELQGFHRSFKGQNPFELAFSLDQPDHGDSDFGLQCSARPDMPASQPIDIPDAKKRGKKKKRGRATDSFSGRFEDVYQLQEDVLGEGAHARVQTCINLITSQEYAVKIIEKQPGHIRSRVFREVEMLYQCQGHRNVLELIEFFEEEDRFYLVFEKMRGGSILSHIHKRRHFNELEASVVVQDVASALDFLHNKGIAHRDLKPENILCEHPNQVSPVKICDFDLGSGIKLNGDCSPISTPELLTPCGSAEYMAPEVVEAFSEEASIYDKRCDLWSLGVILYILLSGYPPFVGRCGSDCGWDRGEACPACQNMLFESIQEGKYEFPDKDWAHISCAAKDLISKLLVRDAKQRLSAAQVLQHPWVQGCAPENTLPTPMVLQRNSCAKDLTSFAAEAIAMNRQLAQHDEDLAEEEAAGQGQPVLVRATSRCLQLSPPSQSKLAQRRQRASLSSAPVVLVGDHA
Description: as §1

For another experiment, the target named is HIPK1 (Homo sapiens, UniProt Q86Z02). Kind of experiment: Kinase profiling HIPK1. Conditions: 100 micromolar inhibitor concentration, 100 is no change; for remaining activity at 100 µM: read-out: residual kinase activity, HIPK1.
Chain of HIPK1 (Q86Z02 whole entry, species assumed): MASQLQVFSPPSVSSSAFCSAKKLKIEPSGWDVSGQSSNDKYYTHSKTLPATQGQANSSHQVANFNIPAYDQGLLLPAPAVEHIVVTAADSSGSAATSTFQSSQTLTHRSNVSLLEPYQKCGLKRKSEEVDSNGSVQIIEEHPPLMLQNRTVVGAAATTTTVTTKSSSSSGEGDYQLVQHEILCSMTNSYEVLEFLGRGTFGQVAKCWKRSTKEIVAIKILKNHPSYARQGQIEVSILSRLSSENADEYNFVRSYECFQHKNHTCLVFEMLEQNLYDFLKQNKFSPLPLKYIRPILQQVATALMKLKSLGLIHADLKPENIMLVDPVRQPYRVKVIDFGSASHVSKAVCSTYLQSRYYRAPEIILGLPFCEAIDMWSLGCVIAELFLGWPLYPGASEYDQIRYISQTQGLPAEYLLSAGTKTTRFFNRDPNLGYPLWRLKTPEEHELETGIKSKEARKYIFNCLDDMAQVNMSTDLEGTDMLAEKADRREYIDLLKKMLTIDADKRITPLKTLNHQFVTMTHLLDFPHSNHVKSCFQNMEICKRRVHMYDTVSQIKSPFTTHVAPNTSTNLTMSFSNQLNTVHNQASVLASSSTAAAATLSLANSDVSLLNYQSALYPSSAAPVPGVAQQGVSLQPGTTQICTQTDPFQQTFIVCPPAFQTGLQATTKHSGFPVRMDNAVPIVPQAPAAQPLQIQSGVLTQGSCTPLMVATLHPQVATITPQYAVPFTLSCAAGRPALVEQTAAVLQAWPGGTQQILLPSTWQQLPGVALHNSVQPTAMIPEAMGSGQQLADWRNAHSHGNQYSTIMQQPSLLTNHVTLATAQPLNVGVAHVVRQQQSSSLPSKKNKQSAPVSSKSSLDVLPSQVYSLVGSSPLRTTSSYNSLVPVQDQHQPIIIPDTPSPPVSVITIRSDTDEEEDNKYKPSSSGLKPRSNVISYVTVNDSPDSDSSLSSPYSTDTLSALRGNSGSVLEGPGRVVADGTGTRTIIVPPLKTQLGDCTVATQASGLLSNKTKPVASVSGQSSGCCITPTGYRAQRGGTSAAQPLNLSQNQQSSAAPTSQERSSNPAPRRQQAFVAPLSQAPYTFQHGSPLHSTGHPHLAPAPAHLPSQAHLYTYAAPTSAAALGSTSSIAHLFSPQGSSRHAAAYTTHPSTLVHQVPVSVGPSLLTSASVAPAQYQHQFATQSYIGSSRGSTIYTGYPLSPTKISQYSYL
Description: as §1

Another experiment has as its target PAK5 (Homo sapiens, UniProt Q9P286). Kind of experiment: Kinase profiling PAK5. To be noted: 100 micromolar inhibitor concentration, 100 is no change; for remaining activity at 100 µM: read-out: residual kinase activity, PAK5.
Description: as §1

The target in another experiment is HIPK3 (Homo sapiens, UniProt Q9H422). Kind of experiment: Kinase profiling HIPK3. Conditions: 100 micromolar inhibitor concentration, 100 is no change; for remaining activity at 100 µM: read-out: residual kinase activity, HIPK3.
Chain of HIPK3 (Q9H422 whole entry, species assumed): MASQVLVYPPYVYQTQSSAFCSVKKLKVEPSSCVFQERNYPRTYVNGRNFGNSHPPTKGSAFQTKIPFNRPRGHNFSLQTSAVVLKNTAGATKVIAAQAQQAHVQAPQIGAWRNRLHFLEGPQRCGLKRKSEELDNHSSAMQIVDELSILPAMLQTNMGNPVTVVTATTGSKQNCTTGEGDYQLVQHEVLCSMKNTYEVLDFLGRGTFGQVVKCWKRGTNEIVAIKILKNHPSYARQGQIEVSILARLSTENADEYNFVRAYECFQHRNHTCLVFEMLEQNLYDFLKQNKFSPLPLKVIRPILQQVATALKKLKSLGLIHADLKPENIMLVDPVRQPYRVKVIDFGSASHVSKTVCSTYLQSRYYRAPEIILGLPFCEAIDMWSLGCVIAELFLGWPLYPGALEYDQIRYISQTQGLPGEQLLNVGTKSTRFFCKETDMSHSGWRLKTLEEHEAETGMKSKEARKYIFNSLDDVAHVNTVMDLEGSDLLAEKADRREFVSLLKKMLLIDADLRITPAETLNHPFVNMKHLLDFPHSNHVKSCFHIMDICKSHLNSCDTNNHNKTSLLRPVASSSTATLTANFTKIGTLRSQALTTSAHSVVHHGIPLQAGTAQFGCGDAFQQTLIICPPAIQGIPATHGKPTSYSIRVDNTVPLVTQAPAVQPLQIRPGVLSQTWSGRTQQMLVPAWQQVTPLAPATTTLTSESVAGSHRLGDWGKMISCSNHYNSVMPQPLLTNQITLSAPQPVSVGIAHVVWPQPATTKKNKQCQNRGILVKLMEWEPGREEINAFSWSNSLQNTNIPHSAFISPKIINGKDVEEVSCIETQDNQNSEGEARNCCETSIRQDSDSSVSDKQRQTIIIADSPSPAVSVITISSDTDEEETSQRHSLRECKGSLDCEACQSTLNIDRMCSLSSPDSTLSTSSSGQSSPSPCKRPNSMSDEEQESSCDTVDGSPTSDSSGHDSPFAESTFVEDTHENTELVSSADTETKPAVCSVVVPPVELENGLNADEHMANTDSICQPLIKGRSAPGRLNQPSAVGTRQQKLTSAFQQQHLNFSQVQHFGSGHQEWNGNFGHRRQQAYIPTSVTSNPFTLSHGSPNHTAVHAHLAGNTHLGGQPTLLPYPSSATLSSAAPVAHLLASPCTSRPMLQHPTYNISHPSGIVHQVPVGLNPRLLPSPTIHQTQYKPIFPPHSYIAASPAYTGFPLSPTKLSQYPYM
Description: as §1

A further experiment deals with EPH-A4 (Homo sapiens, UniProt P54764). Kind of experiment: Kinase profiling EPH-A4. To be noted: 100 micromolar inhibitor concentration, 100 is no change; for remaining activity at 100 µM: read-out: residual kinase activity, EPH-A4.
Chain of EPH-A4 (P54764 20-986, species assumed): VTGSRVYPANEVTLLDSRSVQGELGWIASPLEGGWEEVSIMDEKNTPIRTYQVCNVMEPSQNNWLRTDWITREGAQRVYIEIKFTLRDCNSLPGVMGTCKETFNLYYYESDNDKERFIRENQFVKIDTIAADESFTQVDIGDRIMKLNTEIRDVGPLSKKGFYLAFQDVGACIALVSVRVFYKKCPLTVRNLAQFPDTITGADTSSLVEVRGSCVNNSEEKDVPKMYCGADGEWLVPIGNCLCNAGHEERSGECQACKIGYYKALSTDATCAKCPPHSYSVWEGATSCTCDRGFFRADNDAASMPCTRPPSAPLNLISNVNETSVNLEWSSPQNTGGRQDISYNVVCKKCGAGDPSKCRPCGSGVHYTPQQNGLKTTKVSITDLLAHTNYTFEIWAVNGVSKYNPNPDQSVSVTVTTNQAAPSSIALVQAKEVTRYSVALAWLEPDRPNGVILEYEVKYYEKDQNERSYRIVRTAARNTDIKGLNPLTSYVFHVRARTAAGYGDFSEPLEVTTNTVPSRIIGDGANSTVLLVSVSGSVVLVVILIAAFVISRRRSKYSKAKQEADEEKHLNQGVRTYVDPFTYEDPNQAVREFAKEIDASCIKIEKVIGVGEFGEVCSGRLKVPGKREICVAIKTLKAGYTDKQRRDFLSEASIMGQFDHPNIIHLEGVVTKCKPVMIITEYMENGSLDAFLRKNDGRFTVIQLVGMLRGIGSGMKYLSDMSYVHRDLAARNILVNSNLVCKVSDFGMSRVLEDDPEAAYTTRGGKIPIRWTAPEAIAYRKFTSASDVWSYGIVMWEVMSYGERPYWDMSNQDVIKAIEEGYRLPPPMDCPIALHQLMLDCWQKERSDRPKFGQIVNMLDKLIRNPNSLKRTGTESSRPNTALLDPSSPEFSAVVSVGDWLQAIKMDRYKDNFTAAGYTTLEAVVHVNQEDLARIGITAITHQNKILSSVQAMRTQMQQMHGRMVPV
Description: as §1

Chain of PAK5 (Q9P286 whole entry): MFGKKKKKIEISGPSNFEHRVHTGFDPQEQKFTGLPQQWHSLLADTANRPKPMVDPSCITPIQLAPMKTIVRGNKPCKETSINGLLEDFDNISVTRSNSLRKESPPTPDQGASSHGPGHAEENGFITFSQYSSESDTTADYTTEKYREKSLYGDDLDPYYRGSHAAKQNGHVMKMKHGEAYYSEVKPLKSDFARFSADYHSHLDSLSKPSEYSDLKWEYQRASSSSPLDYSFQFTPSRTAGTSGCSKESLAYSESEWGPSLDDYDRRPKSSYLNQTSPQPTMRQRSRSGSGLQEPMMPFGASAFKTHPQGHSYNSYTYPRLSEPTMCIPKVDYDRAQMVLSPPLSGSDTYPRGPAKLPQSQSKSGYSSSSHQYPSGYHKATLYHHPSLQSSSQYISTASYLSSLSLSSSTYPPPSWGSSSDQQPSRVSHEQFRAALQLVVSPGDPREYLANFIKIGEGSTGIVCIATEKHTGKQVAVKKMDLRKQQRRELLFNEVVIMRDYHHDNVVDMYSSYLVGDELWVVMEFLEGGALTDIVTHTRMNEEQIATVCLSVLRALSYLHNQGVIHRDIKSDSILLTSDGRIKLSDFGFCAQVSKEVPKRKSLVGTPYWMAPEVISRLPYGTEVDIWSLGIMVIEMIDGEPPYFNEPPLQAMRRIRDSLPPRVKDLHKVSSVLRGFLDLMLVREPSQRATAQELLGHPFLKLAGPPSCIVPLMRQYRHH

In the case of `COc1ccc2sc(NC(C)=O)nc2c1` [Compound 03-21], the remaining activity at 100 µM on IKKb turned out to be 98%; on Aurora A, 103%; at TLK1 it was 97%; on NUAK1 it was 84%; at MNK2, 84%; on HIPK1 it was 39%. For the same compound, the remaining activity at 100 µM on PAK5 came to 110%; at HIPK3 it was 86%; at EPH-A4, 98%.
As to `CC(=O)Nc1nc2ccccc2s1` [Compound 03-32], the “residual kinase activity, IKKb” value on IKKb is on record as 75. The “residual kinase activity, Aurora A” value on Aurora A turned out to be 109. Besides, at TLK1, the “residual kinase activity, TLK1” value was 92. Moreover, at NUAK1, the “residual kinase activity, NUAK1” value turned out to be 74. The “residual kinase activity, MNK2” value on MNK2 worked out at 91. On HIPK1, the “residual kinase activity, HIPK1” value amounted to 62. In addition, the “residual kinase activity, PAK5” value on PAK5 is listed as 74. Further, the “residual kinase activity, HIPK3” value on HIPK3 worked out at 78. Moreover, the “residual kinase activity, EPH-A4” value on EPH-A4 amounted to 111.
For `O=C(Nc1nc2cc(O)ccc2s1)c1cccnc1` [Compound 03-33], the “residual kinase activity, IKKb” value at IKKb was 81. Also, the “residual kinase activity, Aurora A” value on Aurora A is reported as 108. Also, the “residual kinase activity, TLK1” value at TLK1 came to 97. In addition, on NUAK1, the “residual kinase activity, NUAK1” value is reported as 68. At MNK2, the “residual kinase activity, MNK2” value amounted to 36. Besides, the “residual kinase activity, HIPK1” value on HIPK1 came out at 41. On PAK5, the “residual kinase activity, PAK5” value is listed as 109. For the same compound, the “residual kinase activity, HIPK3” value at HIPK3 is recorded as 102. Further, the “residual kinase activity, EPH-A4” value on EPH-A4 came to 92.
On to `O=C(Nc1nc2ccc(O)cc2s1)c1ccccc1` [Compound 03-60], for which the “residual kinase activity, IKKb” value on IKKb was 87. Also, the “residual kinase activity, Aurora A” value at Aurora A came out at 82. In addition, the “residual kinase activity, TLK1” value on TLK1 came out at 74. The “residual kinase activity, NUAK1” value at NUAK1 was 14. In addition, the “residual kinase activity, MNK2” value on MNK2 is 25. In addition, the “residual kinase activity, HIPK1” value on HIPK1 worked out at 9. Besides, on PAK5, the “residual kinase activity, PAK5” value is 70. At HIPK3, the “residual kinase activity, HIPK3” value was determined as 38. The “residual kinase activity, EPH-A4” value at EPH-A4 came out at 87.
As for `CC(=O)Nc1nc2cc(C(F)(F)F)ccc2s1` [Compound 03-73], the remaining activity at 100 µM at IKKb is 94%; on Aurora A, 96%; at TLK1, 103%; on NUAK1, 74%; at MNK2, 96%; on HIPK1 it was 74%. Further, the figures for the remaining activity at 100 µM on PAK5, on HIPK3 and at EPH-A4 were 85%, 106% and 103%, respectively.
Take `CC(=O)Nc1nc2cc(C)ccc2s1` [Compound 03-76]: at IKKb, the “residual kinase activity, IKKb” value came out at 59. Also, the “residual kinase activity, Aurora A” value on Aurora A turned out to be 109. Moreover, the “residual kinase activity, TLK1” value on TLK1 is recorded as 106. Further, the “residual kinase activity, NUAK1” value at NUAK1 was 58. The “residual kinase activity, MNK2” value on MNK2 was determined as 81. Further, on HIPK1, the “residual kinase activity, HIPK1” value is given as 53. Besides, the “residual kinase activity, PAK5” value on PAK5 was 107. Further, the “residual kinase activity, HIPK3” value on HIPK3 is reported as 79. Moreover, at EPH-A4, the “residual kinase activity, EPH-A4” value is 91.
For the compound `CC(=O)Nc1nc2cc(F)ccc2s1` [Compound 03-77], the remaining activity at 100 µM at IKKb is 61%; on Aurora A, 100%; on TLK1, 89%; on NUAK1, 66%; on MNK2, 86%; at HIPK1 it was 40%. Further, the remaining activity at 100 µM on PAK5 stood at 111%; at HIPK3, 62%; at EPH-A4, 100%.
Consider `O=C(Nc1nc2ccc(O)cc2s1)c1ccncc1` [Compound 08-42], for which the “residual kinase activity, IKKb” value on IKKb stood at 82. Besides, the “residual kinase activity, Aurora A” value at Aurora A is given as 103. The “residual kinase activity, TLK1” value at TLK1 came out at 97. The “residual kinase activity, NUAK1” value on NUAK1 was 57. For the same compound, the “residual kinase activity, MNK2” value at MNK2 is 33. In addition, the “residual kinase activity, HIPK1” value at HIPK1 is recorded as 44. Further, on PAK5, the “residual kinase activity, PAK5” value was determined as 79. Besides, the “residual kinase activity, HIPK3” value on HIPK3 came to 90. Also, at EPH-A4, the “residual kinase activity, EPH-A4” value came to 92.
For the compound `O=C(Nc1nc2ccc(O)cc2s1)c1cccnc1` [Compound 08-44], the “residual kinase activity, IKKb” value at IKKb stood at 63. Moreover, the “residual kinase activity, Aurora A” value on Aurora A was 99. Also, the “residual kinase activity, TLK1” value on TLK1 is on record as 90. Besides, the “residual kinase activity, NUAK1” value at NUAK1 is given as 39. Moreover, at MNK2, the “residual kinase activity, MNK2” value turned out to be 36. The “residual kinase activity, HIPK1” value on HIPK1 was found to be 43. For the same compound, the “residual kinase activity, PAK5” value at PAK5 is 88. For the same compound, the “residual kinase activity, HIPK3” value on HIPK3 stood at 45. Further, on EPH-A4, the “residual kinase activity, EPH-A4” value was found to be 89.
